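Interpolation was linear, between the two tested concentrations surrounding the appropriate level; five concentrations were tested over 48 hours in 96-well plates. GI50 = concentration required for 50% inhibition of growth.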 The source made the active and inactive calls. Rule as the data show it: active = GI50 up to about 1.1 µM and inactive = higher.
Experiments:
Experiment in all cases: NCI tumour cell line growth inhibition, 48 h
UACC-257 = test system: UACC-257
M14 = test system: M14
NCI-H522 = test system: NCI-H522
OVCAR-3 = test system: OVCAR-3
SK-OV-3 = test system: SK-OV-3
HCT-116 = test system: HCT-116
IGROV-1 = test system: IGROV-1
OVCAR-5 = test system: OVCAR-5
CAKI-1 = test system: CAKI-1
SF-295 = test system: SF-295
Hs-578T = test system: Hs-578T
DU-145 = test system: DU-145
HOP-62 = test system: HOP-62
TK-10 = test system: TK-10
Malme-3M = test system: Malme-3M
A498 = test system: A498
MDA-N = test system: MDA-N
OVCAR-4 = test system: OVCAR-4
LOX IMVI = test system: LOX IMVI
NCI-H226 = test system: NCI-H226

Measured: GI50

COC(C/C=C\C=C\CC/C=C/CC(C)/C=C/C(=C\C(=O)O)CC(=O)O)/C(C)=C\C=C(/C)C(=O)O (stereo not given)
inactive: UACC-257 > 100 µM | M14 > 100 µM | NCI-H522 > 100 µM | OVCAR-3 > 100 µM | SK-OV-3 > 100 µM | HCT-116 > 100 µM | IGROV-1 > 100 µM | OVCAR-5 > 100 µM | CAKI-1 > 100 µM | SF-295 > 100 µM | Hs-578T 61.7 µM | DU-145 > 100 µM | HOP-62 > 100 µM | TK-10 > 100 µM | Malme-3M > 100 µM | A498 > 100 µM | MDA-N > 100 µM | OVCAR-4 > 100 µM

Cc1ccc(/N=N/NCCCCN/N=N/c2ccc(C)cc2)cc1
inactive: LOX IMVI 1.17 µM | UACC-257 > 100 µM | M14 8.05 µM | OVCAR-3 > 100 µM | SK-OV-3 > 100 µM | HCT-116 65.8 µM | IGROV-1 12.5 µM | OVCAR-5 > 100 µM | CAKI-1 > 100 µM | SF-295 8.22 µM | Hs-578T > 100 µM | DU-145 32 µM | HOP-62 47.9 µM | TK-10 1.65 µM | Malme-3M > 100 µM | A498 54.6 µM | MDA-N 16.5 µM | OVCAR-4 > 100 µM | NCI-H226 > 100 µM

N[C@@H]1c2c(Br)sc(Br)c2C(=O)[C@H]1Br
inactive: LOX IMVI 15.7 µM | UACC-257 18.6 µM | M14 20.6 µM | NCI-H522 14.7 µM | OVCAR-3 30.6 µM | SK-OV-3 > 100 µM | HCT-116 17.3 µM | IGROV-1 20.6 µM | OVCAR-5 > 82.4 µM | CAKI-1 27.3 µM | SF-295 > 70.6 µM | Hs-578T 54.6 µM | DU-145 > 60.3 µM | HOP-62 50.4 µM | TK-10 > 100 µM | Malme-3M 21.7 µM | A498 35.2 µM | OVCAR-4 27.2 µM | NCI-H226 > 42.3 µM

CC1(C)CC(=O)C2=C(C1)NC(=S)C(C#N)C2c1ccccc1 (stereo not given)
inactive: LOX IMVI > 100 µM | UACC-257 > 100 µM | M14 > 100 µM | NCI-H522 > 100 µM | OVCAR-3 > 100 µM | SK-OV-3 > 100 µM | HCT-116 > 100 µM | IGROV-1 > 100 µM | OVCAR-5 > 100 µM | CAKI-1 > 100 µM | SF-295 > 100 µM | Hs-578T > 100 µM | DU-145 > 100 µM | HOP-62 > 100 µM | TK-10 > 100 µM | Malme-3M > 100 µM | MDA-N > 100 µM | OVCAR-4 > 100 µM | NCI-H226 > 100 µM

COc1cc(/C=C2\N=C(c3ccccc3)N(/N=C/c3cc4cc(C)ccc4nc3Cl)C2=O)cc(OC)c1OC
inactive: LOX IMVI 32.1 µM | UACC-257 46.5 µM | M14 39.4 µM | OVCAR-3 26.5 µM | SK-OV-3 59.8 µM | HCT-116 33.7 µM | IGROV-1 33.3 µM | OVCAR-5 > 100 µM | CAKI-1 61.7 µM | SF-295 44.2 µM | Hs-578T 29.4 µM | DU-145 30.4 µM | HOP-62 58.7 µM | TK-10 37.8 µM | A498 28.1 µM | MDA-N 21 µM | OVCAR-4 37.5 µM

CC1CC[C@@]2(OC1)OC1C[C@H]3[C@@H]4CC=C5CC(OC6OC(CO)C(OC7OC(CO)C(O)C(OC8OCC(O)C(O)C8O)C7OC7OC(CO)C(O)C(O)C7O)C(O)C6O)CCC5(C)[C@H]4CCC3(C)C1[C@@H]2C (stereo not given in full)
inactive: LOX IMVI 4.48 µM | UACC-257 6.47 µM | M14 11.2 µM | NCI-H522 4.72 µM | OVCAR-3 4.93 µM | SK-OV-3 6.55 µM | HCT-116 4.44 µM | IGROV-1 3.94 µM | OVCAR-5 8.51 µM | CAKI-1 4.95 µM | SF-295 7.11 µM | Hs-578T 4.66 µM | DU-145 4.86 µM | HOP-62 4.09 µM | TK-10 7.43 µM | Malme-3M > 25 µM | A498 4.69 µM | OVCAR-4 6.58 µM | NCI-H226 13.3 µM

CCOC(=O)c1csc(NC(=O)CN(C)C)n1
inactive: LOX IMVI > 100 µM | UACC-257 > 100 µM | M14 > 100 µM | OVCAR-3 > 100 µM | SK-OV-3 > 100 µM | IGROV-1 > 100 µM | OVCAR-5 > 100 µM | CAKI-1 > 100 µM | SF-295 > 100 µM | Hs-578T > 100 µM | DU-145 > 100 µM | HOP-62 > 100 µM | TK-10 > 100 µM | A498 > 100 µM | MDA-N > 100 µM | OVCAR-4 > 100 µM | NCI-H226 > 100 µM

O=C(Cn1c2c(c3ccccc31)CCCC2)N1CCCCC1
inactive: LOX IMVI > 100 µM | UACC-257 > 100 µM | M14 > 100 µM | OVCAR-3 > 100 µM | SK-OV-3 > 100 µM | HCT-116 > 100 µM | IGROV-1 > 100 µM | OVCAR-5 > 100 µM | CAKI-1 > 100 µM | SF-295 > 100 µM | Hs-578T > 100 µM | HOP-62 > 100 µM | TK-10 > 100 µM | Malme-3M > 100 µM | MDA-N > 100 µM | OVCAR-4 > 100 µM

[O-][S+](Nc1ccccc1)c1ccc(-c2ccccc2)cc1 (stereo not given)
inactive: LOX IMVI 28.5 µM | UACC-257 > 100 µM | NCI-H522 > 100 µM | OVCAR-3 > 100 µM | HCT-116 > 100 µM | IGROV-1 > 100 µM | OVCAR-5 > 100 µM | SF-295 55.8 µM | Hs-578T > 100 µM | DU-145 > 100 µM | HOP-62 > 100 µM | TK-10 > 100 µM | Malme-3M > 100 µM | MDA-N > 100 µM | OVCAR-4 38.1 µM | NCI-H226 > 100 µM

Cc1ccc2nc(Cl)c(/C=N/N3C(=O)/C(=C/c4ccc(N(C)C)cc4)N=C3c3ccccc3)cc2c1
inactive: LOX IMVI 31.5 µM | UACC-257 80.2 µM | M14 47.8 µM | OVCAR-3 13.9 µM | SK-OV-3 > 100 µM | HCT-116 39.4 µM | IGROV-1 29 µM | OVCAR-5 > 100 µM | CAKI-1 > 100 µM | SF-295 29.9 µM | Hs-578T 40.1 µM | DU-145 80 µM | HOP-62 42.8 µM | TK-10 > 100 µM | A498 43.8 µM | MDA-N 29.1 µM | OVCAR-4 70 µM

O=C(CC(=O)N(C(=O)c1ccccc1)c1ccc(Cl)cc1)N/N=C\c1cc(/N=N/c2ccccc2Cl)ccc1O
inactive: LOX IMVI > 100 µM | M14 > 100 µM | OVCAR-3 48 µM | SK-OV-3 52.1 µM | HCT-116 75 µM | IGROV-1 > 100 µM | OVCAR-5 > 100 µM | CAKI-1 > 100 µM | SF-295 29.9 µM | Hs-578T 20 µM | DU-145 > 100 µM | HOP-62 39.5 µM | TK-10 27.2 µM | Malme-3M > 100 µM | A498 31.3 µM | MDA-N > 100 µM | NCI-H226 > 100 µM

CCC/C=C/C=C/C1CC(O)C(O)C(=O)C1CO (stereo not given)
inactive: LOX IMVI > 100 µM | UACC-257 > 100 µM | M14 > 100 µM | NCI-H522 55.2 µM | OVCAR-3 21.6 µM | SK-OV-3 > 100 µM | HCT-116 > 100 µM | IGROV-1 > 100 µM | OVCAR-5 > 100 µM | CAKI-1 > 100 µM | SF-295 > 100 µM | Hs-578T > 100 µM | DU-145 > 100 µM | TK-10 > 100 µM | MDA-N > 100 µM | OVCAR-4 > 100 µM | NCI-H226 > 100 µM

O=C(c1cccnc1)N1N=C(c2ccc3c(c2)OCO3)CC1(O)c1cc(F)c(Cl)cc1Cl (stereo not given)
inactive: LOX IMVI 16.4 µM | UACC-257 21.1 µM | M14 31.8 µM | NCI-H522 17 µM | OVCAR-3 11 µM | SK-OV-3 27.9 µM | HCT-116 16.3 µM | IGROV-1 11.4 µM | OVCAR-5 22.3 µM | CAKI-1 28.6 µM | SF-295 19.1 µM | Hs-578T 33 µM | DU-145 20.9 µM | HOP-62 18 µM | TK-10 39.1 µM | Malme-3M 23.4 µM | MDA-N 29.3 µM | OVCAR-4 22.4 µM | NCI-H226 16.2 µM

O=C(c1cccs1)N(C(=O)N1CCCCC1)c1ccccc1
inactive: LOX IMVI > 100 µM | UACC-257 > 100 µM | M14 > 100 µM | OVCAR-3 > 100 µM | SK-OV-3 > 100 µM | HCT-116 > 100 µM | IGROV-1 > 100 µM | CAKI-1 > 100 µM | SF-295 > 100 µM | Hs-578T 84.7 µM | DU-145 > 100 µM | TK-10 > 100 µM | Malme-3M 2.25 µM | A498 > 100 µM | MDA-N > 100 µM | NCI-H226 > 100 µM

O=S(=O)(O)C1CCC(O)C2NCCCC21 (stereo not given)
inactive: LOX IMVI > 100 µM | UACC-257 > 100 µM | M14 > 100 µM | NCI-H522 > 100 µM | OVCAR-3 > 100 µM | SK-OV-3 > 100 µM | HCT-116 > 100 µM | IGROV-1 > 100 µM | OVCAR-5 > 100 µM | CAKI-1 > 100 µM | SF-295 > 100 µM | Hs-578T > 100 µM | DU-145 > 100 µM | HOP-62 > 100 µM | TK-10 > 100 µM | Malme-3M > 100 µM | A498 > 100 µM | OVCAR-4 > 100 µM | NCI-H226 > 100 µM

Reference: ChEMBL document CHEMBL1201862, “PubChem BioAssay data set” (2004)
